Reference: patent US20240270741A1 (Cogent Biosciences, Inc., priority 2023, published 2024)

Biological target: FGFR2 (Homo sapiens, UniProt P21802)
Test: FGFR wild type enzyme assay (HTRF KinEASE-TK), FGFR2
Settings: Enz FGFR2 (nM), FGFR2 wild type enzyme

Sequence of FGFR2 (P21802 399-821 limits assumed): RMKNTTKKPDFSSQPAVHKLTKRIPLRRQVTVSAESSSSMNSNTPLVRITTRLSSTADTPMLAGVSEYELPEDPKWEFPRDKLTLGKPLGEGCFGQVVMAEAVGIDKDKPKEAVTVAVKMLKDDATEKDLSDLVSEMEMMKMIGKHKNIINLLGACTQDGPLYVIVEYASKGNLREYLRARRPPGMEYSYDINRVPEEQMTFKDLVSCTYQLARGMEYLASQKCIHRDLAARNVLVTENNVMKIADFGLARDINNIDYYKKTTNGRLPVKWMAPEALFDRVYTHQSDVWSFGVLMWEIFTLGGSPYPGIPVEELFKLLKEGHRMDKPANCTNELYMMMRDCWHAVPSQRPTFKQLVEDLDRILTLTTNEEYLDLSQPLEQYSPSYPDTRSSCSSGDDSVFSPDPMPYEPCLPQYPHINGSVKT

| Structure (SMILES) | IC50 [nM] |
| --- | --- |
| Cc1nn([C@H]2CC[C@@H](N(C)C)CC2)c(C)c1-c1cc(Sc2ncccc2F)c2c(C#N)cnn2c1 [Example 304, 6-(1-((1s,4s)-4-(dimethylamino)cyclohex-yl)-3,5-dimethyl-1H-pyrazol-4-yl)-4-((3-fluoropyridin-2-yl)thio)pyrazolo[1,5-a]pryidine-3-carbonitrile] | 3.5 |
| Cc1nn(C2CCN(C)CC2)c(C)c1-c1cc(Sc2ccccc2C#N)c2c(C#N)cnn2c1 [Example 305, 4-((2-cyanophenyl)thio)-6-(3,5-dimethyl-1-(1-methylpiperidin-4-yl)-1H-pyrazol-4-yl)pyrazolo[1,5-a]pyridine-3-carbonitrile] | 5 |
| CC(=O)N1CCC(n2ncc(-c3cc(Sc4ccc(F)cn4)c4c(C#N)cnn4c3)c2C)CC1 [Example 306, 6-(1-(1-acetylpiperidin-4-yl)-5-methyl-1H-pyrazol-4-yl)-4-((5-fluoropyridin-2-yl)thio)pyrazolo[1,5-a]pyridine-3-carbonitrile] | 6 |
| Cc1c(-c2cc(Sc3ccc(F)cn3)c3c(C#N)cnn3c2)cnn1[C@H]1CCCNC1 [Example 307, (S)-4-((5-fluoropyridin-2-yl)thio)-6-(5-methyl-1-(piperidin-3-yl)-1H-pyrazol-4-yl)pyrazolo[1,5-a]pyridine-3-carbonitrile] | 5 |
| CC(=O)N1CCC[C@H](n2ncc(-c3cc(Sc4ccc(F)cn4)c4c(C#N)cnn4c3)c2C)C1 [Example 308, (S)-6-(1-(1-acetylpiperidin-3-yl)-5-methyl-1H-pyrazol-4-yl)-4-((5-fluoropyridin-2-yl)thio)pyrazolo[1,5-a]pyridine-3-carbonitrile] | 7 |
| Cc1c(-c2cc(Sc3ccc(F)cn3)c3c(C#N)cnn3c2)cnn1[C@H]1C[C@H]2CC[C@@H](C1)N2C(=O)CO [Example 309, 4-((5-fluoropyridin-2-yl)thio)-6-(1-((1R,3r,5S)-8-(2-hydroxyacetyl)-8-azabicyclo[3.2.1]octan-3-yl)-5-methyl-1H-pyrazol-4-yl)pyrazolo[1,5-a]pyridine-3-carbonitrile] | 6 |
| Cc1c(-c2cc(Sc3ccc(F)cn3)c3c(C#N)cnn3c2)cnn1[C@@H]1C[C@H]2CC[C@@H](C1)N2C(=O)CO [Example 310, 4-((5-fluoropyridin-2-y)thio)-6-(1-((1R,3s,5S)-8-(2-hydroxyacetyl)-8-azabicyclo[3.2.1]octan-3-yl)-5-methyl-1H-pyrazol-4-yl)pyrazolo[1,5-a]pyridine-3-carobnitrile] | 8 |
| CN[C@H]1CC[C@@H](n2ncc(-c3cc(Sc4ccccn4)c4c(C#N)cnn4c3)c2C)CC1 [Example 311, 6-(5-methyl-1-((1s,4s)-4-(methylamino)cyclohexyl)-1H-pyrazol-4-yl)-4-(pyridin-2-ylthio)pyrazolo[1,5-a]pyridine-3-carbonitrile] | 2 |
| CC(=O)N[C@H]1CC[C@@H](n2cc(-c3cc(Sc4ccccn4)c4c(C#N)cnn4c3)cn2)CC1 [Example 314, N-((1s,4s)-4-(4-(3-cyano-4-(pyridin-2-ylthio)pyrazolo[1,5-a]pyridin-6-yl)-1H-pyrazol-1-yl)cyclohexyl)acetamide] | 2 |
| CC(=O)N[C@H]1CC[C@@H](n2cc(-c3cc(Sc4ncccc4C)c4c(C#N)cnn4c3)cn2)CC1 [Example 315, N-((1s,4s)-4-(4-(3-cyano-4-((3-methylpyridin-2-yl)thio)pyrazolo[1,5-a]pyridin-6-yl)-1H-pyrazol-1-yl)cyclohexyl)acetamide] | 3 |
| Cc1c(-c2cc(Sc3ncc(F)cc3F)c3c(C#N)cnn3c2)cnn1C1CCN(C)CC1 [Example 328, 4-((3,5-difluoropyridin-2-yl)thio)-6-(5-methyl-1-(1-methylpiperidin-4-yl)-1H-pyrazol-4-yl)pyrazolo[1,5-a]pyridine-3-carbonitrile] | 3 |
| Cc1c(-c2cc(Sc3ccc(F)cn3)c3c(C#N)cnn3c2)cnn1C1CCN(C)CC1 [Example 329, 4-((5-fluoropyridin-2-yl)thio)-6-(5-methyl-1-(1-methylpiperidin-4-yl)-1H-pyrazol-4-yl)pyrazolo[1,5-a]pyridine-3-carbonitrile] | 5 |

These reach a lower IC50. Values come first.

| IC50 [nM] | Structure (SMILES) |
| --- | --- |
| 1.5 | Cc1nn([C@H]2CC[C@@H](O)CC2)cc1-c1cc(Sc2ncccc2F)c2c(C#N)cnn2c1 [Example 312, 4-((3-fluoropyridin-2-yl)thio)-6-(1-((1s,4s)-4-hydroxycyclohexyl)-3-methyl-1H-pyrazol-4-yl)pyrazolo[1,5-a]pyridine-3-carbonitrile] |
| 1 | Cc1nn([C@H]2CC[C@@H](O)CC2)cc1-c1cc(Sc2ccccc2C#N)c2c(C#N)cnn2c1 [Example 313, 4-((2-cyanophenyl)thio)-6-(1-((1s,4s)-4-hydroxycyclohexyl)-3-methyl-1H-pyrazol-4-yl)pyrazolo[1,5-a]pyridine-3-carbonitrile] |
| 0.4 | CC(=O)N[C@H]1CC[C@@H](n2cc(-c3cc(Sc4ccccc4C#N)c4c(C#N)cnn4c3)cn2)CC1 [Example 316, N-((1s,4s)-4-(4-(3-cyano-4-((2-cyanophenyl)thio)pyrazolo [1,5-a]pyridin-6-yl)-1H-pyrazol-1-yl)cyclohexyl)acetamide] |
| 0.5 | Cc1c(-c2cc(Sc3ccc(F)cc3C#N)c3c(C#N)cnn3c2)cnn1[C@H]1CC[C@@H](N(C)CCO)CC1 [Example 317, 4-((2-cyano-4-fluorophenyl)thio)-6-(1-((1s,4s)-4-((2-hydroxyethyl)(methyl)ami-no)cyclohexyl)-5-methyl-1H-pyrazol-4-yl)pyrazolo[1,5-a]pyridine-3-carbonitrile] |
| 0.4 | Cc1c(-c2cc(Sc3ccccc3C#N)c3c(C#N)cnn3c2)cnn1[C@H]1CC[C@@H](N(C)CCO)CC1 [Example 318, 4-((2-cyanophenyl)thio)-6-(1-((1s,4s)-4-((2-hydroxyethyl)(methyl)ami-no)cyclohexyl)-5-methyl-1H-pyrazol-4-yl)pyrazolo[1,5-a]pyridine-3-carbonitrile] |
| 0.3 | CN[C@]1(C)CC[C@H](n2ncc(-c3cc(Sc4ccccc4C#N)c4c(C#N)cnn4c3)c2C)CC1 [Example 319, 4-((2-cyanophenyl)thio)-6-(5-methyl-1-((1s,4s)-4-methyl-4-(methylamino)cyclohexyl)-1H-pyrazol-4-yl)pyrazolo[1,5-a]pyridine-3-carbonitrile] |
| 0.3 | CN[C@]1(C)CC[C@@H](n2ncc(-c3cc(Sc4ccccc4C#N)c4c(C#N)cnn4c3)c2C)CC1 [Example 320, 4-((2-cyanophenyl)thio)-6-(5-methyl-1-((1r,4r)-4-methyl-4-(methylamino)cyclohexyl)-1H-pyrazol-4-yl)pyrazolo[1,5-a]pyridine-3-carbonitirle] |
| 1 | CC(=O)N1CC[C@]2(CC[C@@H](n3ncc(-c4cc(Sc5ccccc5C#N)c5c(C#N)cnn5c4)c3C)CC2)C1 [Example 321, 6-(1-((5r,8r)-2-acetyl-2-azaspiro[4.5]decan-8-yl)-5-methyl-1H-pyrazol-4-yl)-4-((2-cyanophenyl)thio)pyrazolo [1,5-a]pyridine-3-carbonitrile] |
| 0.6 | CC(=O)N1CC[C@]2(CC[C@H](n3ncc(-c4cc(Sc5ccccc5C#N)c5c(C#N)cnn5c4)c3C)CC2)C1 [Example 322, 6-(1-((5s,8s)-2-acetyl-2-azaspiro[4.5]decan-8-yl)-5-methyl-1H-pyrazol-4-yl)-4-((2-cyanophenyl)thio)pyrazolo [1,5-a]pyridine-3-carbonitrile] |
| 1 | Cc1c(-c2cc(Sc3ccc(F)cc3C#N)c3c(C#N)cnn3c2)cnn1[C@H]1CC[C@](C)(O)CC1 [Example 323, 4-((2-cyano-4-fluorophenyl)thio)-6-(1-((1r,4r)-4-hydroxy-4-methylcyclohexyl)-5-methyl-1H-pyrazol-4-yl)pyrazolo[1,5-a]pyridine-3-carbonitrile] |
| 1 | Cc1c(-c2cc(Sc3ccc(F)cc3C#N)c3c(C#N)cnn3c2)cnn1[C@H]1CC[C@@](C)(O)CC1 [Example 324, 4-((2-cyano-4-fluorophenyl)thio)-6-(1-((1s,4s)-4-hydroxy-4-methylcyclohexyl)-5-methyl-1H-pyrazol-4-y)pyrazolo[1,5-a]pyridine-3-carbonitrile] |
| 0.5 | Cc1c(-c2cc(Sc3ccc(F)cc3C#N)c3c(C#N)cnn3c2)cnn1[C@H]1CC[C@@](C)(N)CC1 [Example 325, 6-(1-((1s,4s)-4-amino-4-methylcyclohexyl)-5-methyl-1H-pyrazol-4-yl)-4-((2-cyano-4-fluorophenyl)thio)pyrazolo [1,5-a]pyridine-3-carbonitrile] |
| 1 | CN[C@]1(C)CC[C@H](n2ncc(-c3cc(Sc4ccc(F)cc4C#N)c4c(C#N)cnn4c3)c2C)CC1 [Example 326, 4-((2-cyano-4-fluoorphenyl)thio)-6-(5-methyl-1-((1s,4s)-4-methyl-4-(methylamino)cyclohxyl)-1H-pyrazol-4-eyl)pyrazolo[1,5-a]pyridine-3-carbonitrile] |
| 0.5 | Cc1c(-c2cc(Sc3ccc(F)cc3C#N)c3c(C#N)cnn3c2)cnn1[C@H]1CC[C@@](C)(N(C)C)CC1 [Example 327, 4-((2-cyano-4-fluorophenyl)thio)-6-(1-((1s,4s)-4-(dimethylamino)-4-methylcyclohexyl)-5-methyl-1H-pyrazol-4-yl)pyrazolo[1,5-a]pyridine-3-carbonitrile] |
| 1 | Cc1c(-c2cc(Sc3ccc(F)cc3C#N)c3c(C#N)cnn3c2)cnn1C1CCN(C(C)C)CC1 [Example 330, 4-((2-cyano-4-fluorophenyl)thio)-6-(1-(1-isopropylpiperidin-4-yl)-5-methyl-1H-pyrazol-4-yl)pyrazolo[1,5-a]pyridine-3-carbonitrile] |
| 1 | Cc1c(-c2cc(Sc3ccc(F)cc3C#N)c3c(C#N)cnn3c2)cnn1C1CCN(C[C@@H](C)O)CC1 [Example 331, (R)-4-((2-cyano-4-fluorophenyl)thio)-6-(1-(1-(2-hydroxypropyl)piperidin-4-yl)-5-methyl-1H-pyrazol-4-yl)pyrazolo[1,5-a]pyridine-3-carbonitrile] |
| 1 | Cc1c(-c2cc(Sc3ccc(F)cc3C#N)c3c(C#N)cnn3c2)cnn1[C@H]1CCCN(C(=O)CO)C1 [Example 332, (S)-4-((2-cyano-4-fluorophenyl)thio)-6-(1-(1-(2-hydroxyacetyl)piperidin-3-yl)-5-methyl-1H-pyrazol-4-yl)pyrazolo[1,5-a]pyridine-3-carbonitrile] |
